pIC50: −log10 of the molar value.
What was measured:
Homo sapiens = species on record: Homo sapiens; assay: In vitro inhibition of LTB4 biosynthesis in A-23187-stimulated human whole blood; type: functional
Mus musculus = species on record: Mus musculus; assay: In vitro inhibition of LTC4 biosynthesis in plasma protein-free cultures of zymosan-stimulated mouse macrophages; type: functional

Compound	pIC50 (Homo sapiens)	pIC50 (Mus musculus)
CO[C@]1(c2cc(F)cc(OCc3ccc4c(ccc(=O)n4C)c3)c2)CCO[C@H](C)C1	6.85	8.10
CO[C@@]1(c2cc(F)cc(OCc3ccc4c(ccc(=O)n4C)c3)c2)CCO[C@@H](C)C1	5.75	7.22
CO[C@]1(c2cc(F)cc(OCc3ccc4c(ccc(=O)n4C)c3)c2)CCO[C@@H](C)C1		9.40
CO[C@@]1(c2cc(F)cc(OCc3ccc4c(ccc(=O)n4C)c3)c2)CCO[C@H](C)C1	6.17	8.05

Source: ChEMBL document CHEMBL1126825, “4-Methoxy-2-methyltetrahydropyrans: chiral leukotriene biosynthesis inhibitors, related to ICI D2138, which display enantioselectivity” (J Med Chem, 1993)
